For the assay, the system named is MPNST cell line, YST-1. Briefly: Proliferation of the MPNST cell line YST-1. Type of assay: cell-based.

Regarding `O=C1c2ccccc2-c2n[nH]c3cccc1c23` [SP600125], for the setting “SP600125 in combination with Imatinib, YST-1 cells”, the “effect on the suppression of cell proliferation effected by Imatinib” value was “reinforces the suppression of cell proliferation”. Besides, the “suppression of proliferation of the MPNST cell line YST-1” value (single agent, concentration-dependent manner) is “suppresses the proliferation”.

The record behind these values is patent US20100222360A1, “Treatment of Malignant Peripheral Nerve Sheath Tumors” (priority 2008, published 2010).
